In this data set the test system is rodent carcinogenicity bioassays, tumor incidence. Nature of the data set: CCRIS carcinogenicity studies. A digest of the protocol: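 NCI-built, expert-reviewed records of carcinogenicity and related test outcomes (mutagenicity, tumor promotion/inhibition) compiled from published and report sources, historical span 1985-2011, not updated.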

Calls of active or inactive are those of the source. The rule behind the calls is not given here.

In the case of `CCOC(N)=O`, the carcinogen call by setting is: (Species: MOUSE, Strain/Sex: ICR/FEMALE, Route: INHALATION, Dose: 0, 0.25 UG/ML AIR FOR 5 D (TOTAL DOSE 1.25 UG/ML/D) (STUDY DURATION: 5 MO), Tumor Site: Type of Lesion: LUNG: TUMOR, HEMATOPOIETIC SYSTEM: LEUKEMIA) “active; positive”; (Species: MOUSE, Strain/Sex: ICR/FEMALE, Route: INHALATION, Dose: 0, 0.25 UG/ML AIR FOR 10 D (TOTAL DOSE 2.5 UG/ML/D) (STUDY DURATION: 5 MO), Tumor Site: Type of Lesion: LUNG: TUMOR) “active; positive”; (Species: MOUSE, Strain/Sex: ICR/FEMALE, Route: INHALATION, Dose: 0, 1.29 UG/ML AIR FOR 0.25 D (TOTAL DOSE 0.32 UG/ML/D) (STUDY DURATION: 5 MO), Tumor Site: Type of Lesion: LUNG: TUMOR, HEMATOPOIETIC SYSTEM: LEUKEMIA) “active; positive”; (Species: MOUSE, Strain/Sex: ICR/FEMALE, Route: INHALATION, Dose: 0, 1.29 UG/ML AIR FOR 1 D (TOTAL DOSE 1.29 UG/ML/D) (STUDY DURATION; 5 MO), Dose: 0, 1.29 UG/ML AIR FOR 1 D (TOTAL DOSE 1.29 UG/ML/D) (STUDY DURATION; 5 MO), Tumor Site: Type of Lesion: LUNG: TUMOR, HEMATOPOIETIC SYSTEM: LEUKEMIA) “active; positive”; (Species: MOUSE, Strain/Sex: ICR/FEMALE, Route: INHALATION, Dose: 0, 1.29 UG/ML AIR FOR 2 D (TOTAL DOSE 2.58 UG/ML/D) (STUDY DURATION: 5 MO), Tumor Site: Type of Lesion: LUNG: TUMOR, HEMATOPOIETIC SYSTEM: LEUKEMIA) “active; positive”; (Species: MOUSE, Strain/Sex: ICR/FEMALE, Route: INHALATION, Dose: 0, 1.29 UG/ML AIR FOR 4 D (TOTAL DOSE 5.16 UG/ML/D) (STUDY DURATION: 5 MO), Tumor Site: Type of Lesion: LUNG: TUMOR, HEMATOPOIETIC SYSTEM: LEUKEMIA) “active; positive”. Further, the carcinogen call reads like this: (Species: MOUSE, Strain/Sex: ICR/FEMALE, Route: INHALATION, Dose: 0, 1.29 UG/ML AIR FOR 5 D (TOTAL DOSE 6.45 UG/ML/D) (STUDY DURATION: 5 MO), Tumor Site: Type of Lesion: LUNG: TUMOR, HEMATOPOIETIC SYSTEM: LEUKEMIA) “active; positive”; (Species: MOUSE, Strain/Sex: ICR/MALE, Route: INHALATION, Dose: 0, 0.25 UG/ML AIR FOR 10 D (TOTAL DOSE 2.5 UG/ML/D) (STUDY DURATION: 12 MO), Tumor Site: Type of Lesion: LUNG: ADENOCARCINOMA, HEMATOPOIETIC SYSTEM: LEUKEMIA, LIVER: HEPATOMA, Tumor Site: Type of Lesion: LUNG: ADENOCARCINOMA, HEMATOPOIETIC SYSTEM: LEUKEMIA, LIVER: HEPATOMA) “active; positive”; (Species: MOUSE, Strain/Sex: ICR/MALE, Route: INHALATION, Dose: 0, 1.29 UG/ML AIR FOR 4 D (TOTAL DOSE 5.16 UG/ML/D) (STUDY DURATION: 12 MO), Tumor Site: Type of Lesion: LUNG: ADENOCARCINOMA, HEMATOPOIETIC SYSTEM: LEUKEMIA, LIVER: HEPATOMA, Tumor Site: Type of Lesion: LUNG: ADENOCARCINOMA, HEMATOPOIETIC SYSTEM: LEUKEMIA, LIVER: HEPATOMA) “active; positive”; (Species: MOUSE, Strain/Sex: STRAIN-A/MALE, Route: INTRAPERITONEAL, Dose: 0, 1.12, 4.6 MMOL/KG IN ISOTONIC SALINE ONCE AT 6 WK OF AGE (STUDY DURATION: 16 WK), Dose: 0, 1.12, 4.6 MMOL/KG IN ISOTONIC SALINE ONCE AT 6 WK OF AGE (STUDY DURATION: 16 WK), Tumor Site: Type of Lesion: LUNG: ADENOMA) “active; positive”; (Species: MOUSE, Strain/Sex: SWISS WEBSTER/FEMALE, Route: INTRAVENOUS, Dose: 0, 3.3 MMOL ONCE ADMINISTERED TO VIRGIN FEMALES AT 12 WK OF AGE (STUDY DURATION: 6 MO), Tumor Site: Type of Lesion: LUNG: ADENOMA) “active; positive”; (Species: MOUSE, Strain/Sex: SWISS WEBSTER/FEMALE, Route: INTRAVENOUS, Dose: 0, 3.3 MMOL/KG ONCE ADMINISTERED TO MOTHERS ON GESTATIONAL DAY 14 (STUDY DURATION: 6 MO), Tumor Site: Type of Lesion: LUNG: ADENOMA) “active; positive”. For the same compound, the carcinogen call (Species: MOUSE, Strain/Sex: SWISS WEBSTER/FEMALE, Route: TRANSPLACENTAL, Dose: 0, 3.3 MMOL/KG ONCE BY INTRAVENOUS ADMINISTRATION TO MOTHERS ON GESTATIONAL DAY 14 (STUDY DURATION: 6 MO), Tumor Site: Type of Lesion: LUNG: ADENOMA) was “active; positive”; the carcinogen call (Species: MOUSE, Strain/Sex: SWISS WEBSTER/MALE, Route: TRANSPLACENTAL, Dose: 0, 3.3 MMOL/KG ONCE BY INTRAVENOUS ADMINISTRATION TO MOTHERS ON GESTATIONAL DAY 14 (STUDY DURATION: 6 Mo), Tumor Site: Type of Lesion: LUNG: ADENOMA) was “active; positive”; the carcinogen call (Species: MOUSE, Strain/Sex: SWISS/MALE,FEMALE, Route: ORAL, Dose: 0, 0.4% IN DRINKING WATER, 2 10-D TREATMENTS, Dose: 0, 0.4% IN DRINKING WATER, 2 10-D TREATMENTS, Tumor Site: Type of Lesion: LUNG: ADENOMA, LYMPHOMA, LIVER: HEMANGIOMA, INTEGUMENTARY SYSTEM (SKIN): PAPILLOMA, SEBACEOUS CARCINOMA, Tumor Site: Type of Lesion: LUNG: ADENOMA, LYMPHOMA, LIVER: HEMANGIOMA, INTEGUMENTARY SYSTEM (SKIN): PAPILLOMA, SEBACEOUS CARCINOMA) is “active; positive”; the carcinogen call (Species: Mouse, Strain/Sex: 129 x MF1 Gstp-null (12-16 males and females), Route: Intraperitoneal, Dose: 10 mg/kg, once, study duration 5 mo, Tumor Site: Type of Lesion: Lung: adenoma (incidence 92% vs 27% in controls, multiplicity 3.8 vs 0.3 in controls)) was “inactive; negative”; the carcinogen call (Species: Mouse, Strain/Sex: 129 x MF1 wild type (14-16 males and females), Route: Intraperitoneal, Dose: 10 mg/kg, once, study duration 5 mo, Tumor Site: Type of Lesion: Lung: adenoma (incidence 29% vs 25% in controls, multiplicity 0.4 vs 0.3 in controls)) is “inactive; negative”; the carcinogen call (Species: RAT, Route: INTRAPERITONEAL, ORAL, Tumor Site: Type of Lesion: LIVER) is “active; positive”. In addition, the carcinogen call is, setting by setting: (Species: RAT, Route: INTRAPERITONEAL, Tumor Site: Type of Lesion: LIVER, NERVOUS SYSTEM) “active; positive”; (Species: RAT, Route: SUBCUTANEOUS, Tumor Site: Type of Lesion: EYE (IRIS)) “active; positive”.

Source of the values: PubChem BioAssay AID1259411 (Chemical Carcinogenesis Research Information System (CCRIS), 2018).
